Where two headings read alike, the source gives them in different places.
What was measured:
F508del = molecular target: T1, F508del (Homo sapiens, UniProt P13569, DEL508-508); test: 3T3 assay: membrane potential optical assay for F508del correction in NIH 3T3 cells; type: cell-based; details: for Emax: NIH3T3
T1 construct: expressed in transfected cells
From the text: 1. Membrane Potential Optical Methods for Assaying F508del Modulation Properties of Compounds
The assay utilizes fluorescent voltage sensing dyes to measure changes in membrane potential using a fluorescent plate reader (e.g., FLIPR III, Molecular Devices, Inc.) as a readout for increase in functional F508del in NIH 3T3 cells. The driving force for the response is the creation of a chloride ion gradient in conjunction with channel activation by a single liquid addition step after the cells have previously been treated with compounds and subsequently loaded with a voltage sensing dye.
2. Identification of Corrector Compounds
To identify correctors of F508del, a single-addition HTS assay format was developed. This HTS assay utilizes fluorescent voltage sensing dyes to measure changes in membrane potential on the FLIPR III as a measurement for increase in gating (conductance) of F508del in F508del NIH 3T3 cells. The F508del NIH 3T3 cell cultures were incubated with the corrector compounds at a range of concentrations for 18-24 hours at 37° C., and subsequently loaded with a redistribution dye. The driving force for the response is a Cl^− ion gradient in conjunction with channel activation with forskolin in a single liquid addition step using a fluorescent plate reader such as FLIPR III.
Bath Solution #1: (in mM) NaCl 160, KCl 4.5, CaCl2) 2, MgCl2 1, HEPES 10, pH 7.4 with NaOH.
Chloride-free bath solution: Chloride salts in Bath Solution #1 (above) are substituted with gluconate salts.
NIH3T3 mouse fibroblasts stably expressing F508del are used for optical measurements of membrane potential. The cells are maintained at 37° C. in 5% CO2 and 90% humidity in Dulbecco's modified Eagle's medium supplemented with 2 mM glutamine, 10% fetal bovine serum, 1×NEAA, b-ME, 1×pen/strep, and 25 mM HEPES in 175 cm^2 culture flasks. For all optical assays, the cells were seeded at ˜20,000/well in 384-well matrigel-coated plates. For the correction assays, the cells are cultured at 37° C. with and without compounds for 16-24 hours.

CFTR = CFTR (Homo sapiens, UniProt P13569); test: Membrane Potential Dye, Enteroid Assay A; type: cell-based; details: for EC50: read-out: Ent. A EC50
Chain of CFTR (P13569 with tags, fused parts or gaps DEL508-508): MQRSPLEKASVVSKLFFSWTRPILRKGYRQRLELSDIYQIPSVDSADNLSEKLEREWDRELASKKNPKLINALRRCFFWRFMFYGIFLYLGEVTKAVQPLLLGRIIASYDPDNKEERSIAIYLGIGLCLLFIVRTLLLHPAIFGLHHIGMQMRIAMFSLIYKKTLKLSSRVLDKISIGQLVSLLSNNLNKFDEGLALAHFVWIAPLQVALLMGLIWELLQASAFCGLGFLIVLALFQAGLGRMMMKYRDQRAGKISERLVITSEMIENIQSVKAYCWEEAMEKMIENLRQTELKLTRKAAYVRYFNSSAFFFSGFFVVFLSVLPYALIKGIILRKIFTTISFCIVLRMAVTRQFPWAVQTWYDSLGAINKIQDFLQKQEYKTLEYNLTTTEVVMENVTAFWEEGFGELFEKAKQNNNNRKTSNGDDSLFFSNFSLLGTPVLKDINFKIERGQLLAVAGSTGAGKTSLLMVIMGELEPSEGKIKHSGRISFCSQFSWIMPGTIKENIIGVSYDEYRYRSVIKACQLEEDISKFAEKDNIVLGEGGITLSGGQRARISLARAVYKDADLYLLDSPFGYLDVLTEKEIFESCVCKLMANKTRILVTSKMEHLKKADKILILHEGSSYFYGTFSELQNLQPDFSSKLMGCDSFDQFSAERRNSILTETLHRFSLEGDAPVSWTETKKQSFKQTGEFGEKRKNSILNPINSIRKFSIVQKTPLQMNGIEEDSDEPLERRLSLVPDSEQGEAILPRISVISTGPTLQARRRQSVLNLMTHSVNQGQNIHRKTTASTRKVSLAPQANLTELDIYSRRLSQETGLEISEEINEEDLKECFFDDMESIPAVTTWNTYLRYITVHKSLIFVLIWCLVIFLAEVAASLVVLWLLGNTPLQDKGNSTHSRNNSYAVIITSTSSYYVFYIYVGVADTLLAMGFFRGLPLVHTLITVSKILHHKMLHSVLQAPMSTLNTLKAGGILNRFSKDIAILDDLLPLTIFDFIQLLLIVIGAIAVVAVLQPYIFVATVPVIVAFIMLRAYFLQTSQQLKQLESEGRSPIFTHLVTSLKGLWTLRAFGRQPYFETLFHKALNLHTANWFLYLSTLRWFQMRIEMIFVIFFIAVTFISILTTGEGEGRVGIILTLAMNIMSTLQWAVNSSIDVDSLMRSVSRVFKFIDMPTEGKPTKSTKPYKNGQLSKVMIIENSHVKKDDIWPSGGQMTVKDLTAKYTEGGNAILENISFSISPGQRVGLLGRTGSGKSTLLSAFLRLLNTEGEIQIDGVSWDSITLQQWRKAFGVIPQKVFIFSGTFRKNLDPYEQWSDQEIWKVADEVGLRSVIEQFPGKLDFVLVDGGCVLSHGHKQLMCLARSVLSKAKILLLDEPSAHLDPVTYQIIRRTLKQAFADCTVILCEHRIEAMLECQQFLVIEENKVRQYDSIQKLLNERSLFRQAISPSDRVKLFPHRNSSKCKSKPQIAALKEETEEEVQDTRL
Procedure, shortened: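 Enteroid cells were loaded with methyl oxonol membrane potential dye (plus CaCCinh-A01 and Chicago Sky Blue) for 25 min at room temperature. Chloride transport was started by switching to chloride-free gluconate stimulation solution, with fluorescence read for 15 min. Activity was expressed as % of a triple-combination CFTR modulator control (3 μM, 3 μM, 300 nM acute).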

[1] = Table 8, read-out: 3T3 Max Activity
[2] = NIH 3T3 cells, F508del correction

T1 sequence (P13569 with tags, fused parts or gaps DEL508-508): as above

Cc1cccc(C)c1-c1cc2nc(n1)NS(=O)(=O)c1cccc(c1)C(=O)N[C@H](CC(C)C)[C@@H](C1CCCCC1)O2 [Compound 140]
Emax (F508del; [1]): > 60% | EC50 (F508del; Table 8): < 1000 nM | Ent. A Max Activity (CFTR; Table 8): +++ (+++ is >60%) | EC50 (CFTR; Table 8): < 1000 nM

Cc1cccc(C)c1-c1cc2nc(n1)NS(=O)(=O)c1cncc(c1)C(=O)N[C@H](CC1CCCCC1)CO2 [Compound 412]
Emax (F508del; [1]): > 60% | EC50 (F508del; Table 8): < 1000 nM | Ent. A Max Activity (CFTR; Table 8): +++ (+++ is >60%) | EC50 (CFTR; Table 8): < 1000 nM

CCCC[C@@H]1Oc2cc(-c3c(C)cccc3C)nc(n2)NS(=O)(=O)c2cccc(c2)C(=O)N[C@@H]1CC1CCCCC1 (stereo in doubt) [Compound 287]
Emax (F508del; [1]): > 60% | EC50 (F508del; Table 8): < 1000 nM | Ent. A Max Activity (CFTR; Table 8): +++ (+++ is >60%) | EC50 (CFTR; Table 8): < 1000 nM

Cc1cccc(C)c1-c1cc2nc(n1)NS(=O)(=O)c1cccc(c1)C(=O)NCC(c1ccc3c(c1)OCO3)O2 (stereo not shown) [Compound 118]
Emax (F508del; [1]): > 60% | EC50 (F508del; Table 8): < 1000 nM | EC50 (CFTR; Table 8): < 1000 nM

CC(C)C[C@@H]1COc2cc(-c3ccccc3F)nc(n2)NS(=O)(=O)c2cccc(c2)C(=O)N1 [Compound 315]
Emax (F508del; [1]): > 60% | EC50 (F508del; Table 8): < 1000 nM | Ent. A Max Activity (CFTR; Table 8): +++ (+++ is >60%) | EC50 (CFTR; Table 8): 1000 to 3000 nM

Cc1cccc(F)c1-c1cc2nc(n1)NS(=O)(=O)c1cccc(c1)C(=O)N[C@H](CC(C)C)CO2 [Compound 98, (11R)-6-(2-Fluoro-6-methylphenyl)-11-(2-methylpropyl)-9-oxa-2λ^6-thia-3,5,12,19-tetraazatricyclo[12.3.1.14,8]nonadeca-1(17),4,6,8(19),14(18),15-hexaene-2,2,13-trione]
Emax (F508del; [1]): > 60% | EC50 (F508del; Table 8): < 1000 nM | Ent. A Max Activity (CFTR; Table 8): +++ (+++ is >60%) | EC50 (CFTR; Table 8): < 1000 nM

Cc1cccc(C)c1-c1cc2nc(n1)NS(=O)(=O)c1cccc(c1)C(=O)N[C@H](C(C)(C)C)CO2 [Compound 361]
Emax (F508del; [1]): > 60% | EC50 (F508del; Table 8): < 1000 nM | Ent. A Max Activity (CFTR; Table 8): +++ (+++ is >60%) | EC50 (CFTR; Table 8): < 1000 nM

Cc1cccc(C)c1-c1cc2nc(n1)NS(=O)(=O)c1cccc(c1)C(=O)N[C@H](CC(C)C)C(C1CC1)O2 (stereo in doubt) [Compound 239]
Emax (F508del; [1]): > 60% | EC50 (F508del; Table 8): < 1000 nM | Ent. A Max Activity (CFTR; Table 8): +++ (+++ is >60%) | EC50 (CFTR; Table 8): < 1000 nM

Cc1cccc(C)c1-c1cc2nc(n1)NS(=O)(=O)c1cccc(c1)C(=O)N[C@H](CCC(C)(C)C)CO2 (single isomer, unassigned) [Compound 47]
Emax (F508del; [1]): > 60% | EC50 (F508del; Table 8): < 1000 nM | Ent. A Max Activity (CFTR; Table 8): +++ (+++ is >60%) | EC50 (CFTR; Table 8): < 1000 nM

Cc1cccc(C)c1-c1cc2nc(n1)NS(=O)(=O)c1cccc(c1)C(=O)NCC(c1ccc(C(C)C)cc1)O2 (stereo not shown) [Compound 271]
3T3 Max Activity (F508del; Table 8): +++ (+++ is >60%) | EC50 (F508del; Table 8): < 1000 nM | Ent. A Max Activity (CFTR; Table 8): +++ (+++ is >60%) | EC50 (CFTR; Table 8): < 1000 nM

Cc1cccc(C)c1-c1cc2nc(n1)NS(=O)(=O)c1cccc(c1)C(=O)N[C@H](C(CC(C)C)CC(C)C)CO2 [Compound 494]
Emax (F508del; [1]): > 60% | EC50 (F508del; Table 8): < 1000 nM | Ent. A Max Activity (CFTR; Table 8): +++ (+++ is >60%) | EC50 (CFTR; Table 8): < 1000 nM

Cc1cccc(C)c1-c1cc2nc(n1)NS(=O)(=O)c1cccc(c1)C(=O)NCCCO2 [Compound 204]
EC50 (F508del; [2]): 1000 to 3000 nM | Ent. A Max Activity (CFTR; Enteroid Assay A): ++ (++ is 30-60%)

Cc1cccc(C)c1-c1cc2nc(n1)NS(=O)(=O)c1cccc(c1)C(=O)NC[C@@H](c1ccc(C(F)(F)F)cc1)O2 (stereo in doubt) [Compound 401]
Emax (F508del; [1]): > 60% | EC50 (F508del; Table 8): < 1000 nM | Ent. A Max Activity (CFTR; Table 8): +++ (+++ is >60%) | EC50 (CFTR; Table 8): < 1000 nM

Cc1ccccc1-c1cc2nc(n1)NS(=O)(=O)c1cccc(c1)C(=O)N[C@H](CC(C)(C)C)CO2 [Compound 305]
Emax (F508del; [1]): > 60% | EC50 (F508del; Table 8): < 1000 nM | Ent. A Max Activity (CFTR; Table 8): +++ (+++ is >60%) | EC50 (CFTR; Table 8): < 1000 nM

Cc1ccccc1-c1cc2nc(n1)NS(=O)(=O)c1cccc(c1)C(=O)N[C@H](CC(C)C)CO2 [Compound 329]
EC50 (F508del; [2]): < 1000 nM | Ent. A Max Activity (CFTR; Enteroid Assay A): +++ (+++ is >600%) | EC50 (CFTR; Enteroid Assay A): < 1000 nM

Cc1cccc(C)c1-c1cc2nc(n1)NS(=O)(=O)c1cccc(c1)C(=O)N[C@H]1CC[C@H](CC1)O2 [Compound 198]
Emax (F508del; heading: 3T3 Max Activity, NIH 3T3 cells, F508del correction): > 60% | EC50 (F508del; [2]): < 1000 nM | Ent. A Max Activity (CFTR; Enteroid Assay A): +++ (+++ is >600%) | EC50 (CFTR; Enteroid Assay A): 1000 to 3000 nM

Cc1cccc(C)c1-c1cc2nc(n1)NS(=O)(=O)c1cccc(c1)C(=O)NC[C@@H](Cc1ccccc1)O2 [Compound 347]
EC50 (F508del; [2]): < 1000 nM | Ent. A Max Activity (CFTR; Enteroid Assay A): +++ (+++ is >600%) | EC50 (CFTR; Enteroid Assay A): < 1000 nM

Cc1cccc(C)c1-c1cc2nc(n1)NS(=O)(=O)c1cccc(n1)C(=O)N[C@H](CC1CCCCC1)CO2 [Compound 411]
Emax (F508del; [1]): > 60% | EC50 (F508del; Table 8): < 1000 nM | Ent. A Max Activity (CFTR; Table 8): +++ (+++ is >60%) | EC50 (CFTR; Table 8): < 1000 nM

Cc1cccc(C)c1-c1cc2nc(n1)NS(=O)(=O)c1ccccc1C(=O)NCC(C1CCC(C)(C)CC1)O2 (stereo not shown) [Compound 284]
Emax (F508del; [1]): > 60% | EC50 (F508del; Table 8): < 1000 nM | Ent. A Max Activity (CFTR; Table 8): +++ (+++ is >60%) | EC50 (CFTR; Table 8): < 1000 nM

Cc1cccc(C)c1-c1cc2nc(n1)NS(=O)(=O)c1cccc(c1)C(=O)N[C@H](Cc1ccccc1)CO2 [Compound 350]
EC50 (F508del; [2]): < 1000 nM | Ent. A Max Activity (CFTR; Enteroid Assay A): +++ (+++ is >600%) | EC50 (CFTR; Enteroid Assay A): < 1000 nM

Cc1cccc(C)c1-c1cc2nc(n1)NS(=O)(=O)c1cccc(c1)C(=O)N[C@H](C1CCCCC1)CO2 [Compound 493]
Emax (F508del; [1]): > 60% | EC50 (F508del; Table 8): < 1000 nM | Ent. A Max Activity (CFTR; Table 8): +++ (+++ is >60%) | EC50 (CFTR; Table 8): < 1000 nM

Cc1cccc(C)c1-c1cc2nc(n1)NS(=O)(=O)c1cccc(c1)C(=O)NCC(c1ccc(C3(C(F)(F)F)CC3)cc1)O2 (racemic) [Compound 9, 6-(2,6-dimethylphenyl)-10-{4-[1-(trifluoromethyl)cyclopropyl]phenyl}-9-oxa-2λ^6-thia-3,5,12,19-tetraazatricyclo[12.3.1.14,8]nonadeca-1(18),4(19),5,7,14,16-hexaene-2,2,13-trione]
Emax (F508del; [1]): > 60% | EC50 (F508del; Table 8): < 1000 nM | Ent. A Max Activity (CFTR; Table 8): +++ (+++ is >60%) | EC50 (CFTR; Table 8): < 1000 nM

Cc1ccc2cc1S(=O)(=O)Nc1nc(cc(-c3c(C)cccc3C)n1)OC[C@@H](CC1CCCCC1)NC2=O [Compound 160]
EC50 (F508del; [2]): < 1000 nM | Ent. A Max Activity (CFTR; Enteroid Assay A): ++ (++ is 30-60%) | EC50 (CFTR; Enteroid Assay A): 1000 to 3000 nM

CC1=C(c2cc3nc(n2)NS(=O)(=O)c2cccc(c2)C(=O)N[C@H](CC(C)C)CO3)C(C)CCC1 (stereo partly drawn) [Compound 100, (11R)-6-(2,6-Dimethylcyclohex-1-en-1-yl)-11-(2-methylpropyl)-9-oxa-2λ^6-thia-3,5,12,19-tetraazatricyclo[12.3.1.14,8]nonadeca-1(17),4,6,8(19),14(18),15-hexaene-2,2,13-trione]
Emax (F508del; [1]): > 60% | EC50 (F508del; Table 8): < 1000 nM | Ent. A Max Activity (CFTR; Table 8): +++ (+++ is >60%) | EC50 (CFTR; Table 8): 1000 to 3000 nM

Cc1cccc(C)c1-c1cc2nc(n1)NS(=O)(=O)c1cccc(c1)C(=O)NC(Cc1ccccc1)CO2 (stereo not shown) [Compound 206]
EC50 (F508del; [2]): < 1000 nM | Ent. A Max Activity (CFTR; Enteroid Assay A): +++ (+++ is >600%) | EC50 (CFTR; Enteroid Assay A): < 1000 nM

Cc1cccc(C)c1-c1cc2nc(n1)NS(=O)(=O)c1cccc(c1)C(=O)NCC(c1ccc(C(C)C)cc1)O2 (stereo not shown) [Compound 272]
Emax (F508del; [1]): > 60% | EC50 (F508del; Table 8): < 1000 nM | Ent. A Max Activity (CFTR; Table 8): + (+ is <30%) | EC50 (CFTR; Table 8): 1000 to 3000 nM

Cc1cccc(C)c1-c1cc2nc(n1)NS(=O)(=O)c1cccc(c1)C(=O)NC[C@H](c1cccc(C(C)(C)C)c1)O2 (stereo in doubt) [Compound 274]
Emax (F508del; [1]): > 60% | EC50 (F508del; Table 8): < 1000 nM | Ent. A Max Activity (CFTR; Table 8): + (+ is <30%) | EC50 (CFTR; Table 8): 3000 to 30000 nM

From patent publication US20230382924A1, “MODULATORS OF CYSTIC FIBROSIS TRANSMEMBRANE CONDUCTANCE REGULATOR” (VERTEX PHARMACEUTICALS INCORPORATED, priority 2020, published 2023)
